# From patent publication US20050031610A1, “CD44-related fragments, compositions and methods” (priority 2002, published 2005)
# “Also recorded” adds a separate entry of the source.
# Legend:
# γ-secretase [1] = assay: Accumulation of membrane-associated CD44 C-terminal fragments in CD44-transfected CHO cells (Western blot, anti-V5); assay type: cell-based; conditions: CHO cells transfected with CD44 C-terminal V5-tag, 16 hours
# Procedure: FIG. 1. The accumulation of membrane-associated C-terminal derivatives of CD44 by a γ-secretase inhibitor. The CHO cells transfected with constructs encoding CD44 with C-terminal V5-tag were incubated in the presence of the indicated concentrations of γ-secretase inhibitor Compound E (Cpd. E) for 16 hours. Detergent lysates were analyzed by Western blot analyses (4-20% Tris-Glycine SDS-PAGE) using anti-V5 antibody.
# When constructs encoding full-length CD44 with C-terminal V5 epitope tag were transiently expressed, full-length CD44 (˜85 kDa) was constitutively processed to generate membrane-associated C-terminal fragments with apparent molecular weights of ˜19 to 22 kDa (FIG. 1). First, experiments were performed to determine whether a γ-secretase inhibitor blocks the putative intramembrane cleavage of CD44 to cause an accumulation of CD44 similar to that observed for APP and ErbB4 (Lee, H.-J., Jung, K.-M., Huang, Y. Z., Bennett, L. B., Lee, J. S., Mei, L. and Kim, T.-W., Presenilin-dependent γ-secretase-like intramembrane cleavage of ErbB4. J. Biol. Chem., 277:6318-6329 (2002)).
# CD44 = assay: Ligand-induced CD44 cleavage / generation of CD44-ICD in CD44-transfected cells (Western blot, anti-V5); assay type: cell-based
# Excerpt: FIG. 5. (A) Schematic representations of truncated CD44 constructs and putative cleavage sites of CD44. Starting amino acid sequences of truncated (ΔE) or intracellular (ICD) CD44 constructs and predicated proteolytic cleavage sites are indicated by arrows. Full-length (FL) and all ICD constructs contain C-terminal V5 tag, whereas all ΔE constructs harbor N-terminal HA tag located immediately after the signal peptide in addition to the C-terminal V5 tag. (B) Expression of truncated CD44 constructs in HEK293 cells. The lysates from the cells transfected with indicated constructs were analyzed by Western blot analyses. The locations of precursor polypeptide encoded by each constructs as well as the cleavage products (e.g. S1, T1, and T2) are shown on the right side of each blot. The lysates from full-length CD44-transfected cells grown in the absence (FL) or presence (FL+hyaluronan) of hyaluronan are shown as controls.
# FIG. 6. Ligand-induced generation of CD44-ICD. Cells were treated for 24 hours with solvent only (Control), hyaluronan, hyaluronan plus Cpd. E, phorbol ester TPA, and TPA plus hyaluronan, and the lysates were analyzed by Western blotting using anti-V5 antibody.
# (§1) It has been previously reported that high molecular weight forms of hyaluronan (HA) induce cell growth arrest (Morrison et al., Genes and Development, 15, 968-980, 2001; Herrlich et al., Ann. NY Acad. Sci. 910, 106-118, 2000).
# γ-secretase [2] = assay: In vitro CD44-ICD generation using membrane fractions from CD44-transfected 293 cells; assay type: biochemical; parameters: dose or concentration left out as unconfirmed; conditions: membrane fractions from dW and dAsp cells, 37° C.
# Procedure: FIG. 4. In vitro generation of the CD44 intracellular domain (CD44-ICD). Membrane fractions prepared from either dW or dAsp cells transfected with full-length CD44 were incubated at 37° C. for the indicated hours with or without Cpd E (1 mM) or MG132 (50 mM). After the incubation, both the pellet (A) and the supernatant (B) were analyzed by Western blot analyses […] using anti-V5 antibody.
# The incubation of the cytosol-free membrane fractions from dW cells transfected with CD44 led to the generation of two fragments (T1 and T2) in the membrane fractions (FIG. 4A) and the release of V5-epitope-tagged CD44-ICD into the soluble fraction (FIG. 4B).
# HEK293 cells = assay: Hyaluronan-mediated growth retardation, count of EGFP-positive CD44-transfected HEK293 cells; assay type: cell-based; conditions: 40 hour incubation
# Procedure: FIG. 7. Effects of a γ-secretase inhibitor in hyaluronan-mediated growth retardation. HEK293 cells were transfected with constructs encoding both full-length CD44 and enhance green fluorescence protein (EGFP) in a single plasmid. Identical number of transfected cells were plated into multiple dishes and incubated with hyaluronan, hyaluronan plus Cpd. E, TPA, and TPA plus Cpd. E. After 40 hour incubation, the number of EGFP-positive cells were counted. Values represent the mean±s.d.
# as §1
Compound,accumulation of transgene-derived CD44 C-terminal fragments (γ-secretase [1]),inhibition of the HA-induced accumulation of S1 and T1 cleavage products (CD44; hyaluronan plus Compound E),"effect on T2 cleavage products (CD44; hyaluronan plus Cpd. E, 24 hours)",generation of T1 fragments (γ-secretase [2]),effect on the growth inhibition induced by HA (HEK293 cells; hyaluronan plus Cpd. E),levels of S1 and T1 cleavage products (CD44; cells treated with high molecular weight forms of HA),"generation of CD44-ICD (CD44; cells treated with high molecular weight forms of HA, 24 hours)","generation of S1 and T2 cleavage (CD44; full-length CD44-transfected HEK293 cells, FL vs. FL+hyaluronan)","growth of cells transfected with CD44 (HEK293 cells; HEK293 cells, full-length CD44 and EGFP)"
C[C@H](NC(=O)Cc1cc(F)cc(F)c1)C(=O)N[C@H]1N=C(c2ccccc2)c2ccccc2N(C)C1=O [Compound E],led to the accumulation,didn't inhibit,selectively affected,not blocked,reverted the growth-inhibition,–,–,–,–
hyaluronan [HA],–,–,–,–,–,elevated,led to the generation of CD44-ICD,increased generation,induced growth inhibition; also recorded: led to an inhibition of cell proliferation
